Source: patent US11535597B2, “Photoreactive ligands and uses thereof” (The Scripps Research Institute, priority 2017, dated 2022)

Legend:
YWHAE = target: T1, YWHAE (Homo sapiens, UniProt P62258); assay: Mapping of FFF probe-modified peptide on YWHAE; assay type: binding; conditions: for Labeled Peptide (residues) of YWHAE 14-3-3 protein epsilon: P62258, PDB 3UBW
T1 construct: endogenous in cells; host or cells: human cells (HEK293T; a subset of probes also in K562)
T1 sequence (P62258 1-255): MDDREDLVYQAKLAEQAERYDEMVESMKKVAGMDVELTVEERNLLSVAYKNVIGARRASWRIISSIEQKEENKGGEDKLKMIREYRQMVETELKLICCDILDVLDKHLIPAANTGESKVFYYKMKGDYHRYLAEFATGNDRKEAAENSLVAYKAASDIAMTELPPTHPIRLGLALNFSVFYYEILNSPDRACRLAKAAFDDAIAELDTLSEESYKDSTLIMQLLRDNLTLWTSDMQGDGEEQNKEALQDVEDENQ
Experimental: Preparation and analysis was adapted from methods previously reported. In brief, for global mapping of fragment probe-modified peptides, separate 10 cm dishes of cells were treated with probes (200-250 μM) in 3.0 mL of DMEM (serum-free) and (if applicable) competitor ligands, proteomes harvested and subjected to click chemistry conditions with either light or heavy isotopically labeled biotin-TEV-azide (10 μL of 5 mM stocks in DMSO, final concentration=100 μM), TCEP, ligand and CuSO4 as detailed above. The samples were allowed to react for 1 h at which point the samples were centrifuged (16,000 g, 5 min, 4° C.). The resulting pellets were sonicated in ice-cold methanol (500 μL) and the resuspended light- and heavy-labeled samples were then combined and centrifuged (16,000 g, 5 min, 4° C.). The pellets were then solubilized in PBS containing 1.2% SDS (1 mL) with sonication and heating (5 min, 95° C.). Samples were transferred to falcon tubes containing DPBS (5 mL), to which a 100 μL of streptavidin-agarose beads slurry was added. After incubation, the beads (3 hr) were pelleted by centrifugation (1,400 g, 3 min) and were washed (2×10 mL PBS and 2×10 mL water). The beads were transferred to eppendorf tubes with 1 mL DPBS, centrifuged (1,400 g, 3 min), and resuspended in PBS containing 6 M urea. To this was added 10 mM DTT (25 μL of a 200 mM stock in water) and the beads were incubated at 65° C. for 15 mins. 20 mM iodoacetamide (25 μL of a 400 mM stock in water) was then added and allowed to react at 37° C. for 30 mins with shaking. The bead mixture was diluted with 900 μL PBS, pelleted by centrifugation (1,400 g, 3 min), and resuspended in 200 μL 2M urea (DPBS) containing trypsin and CaCl2 as described above. […]
(§1) The resulting probe-modified peptides were collected for MS analysis, which was performed as described above with differences in the salt bumps applied in the chromatographic gradients which in this case were 0%, 30%, 60%, 90% and 100% NH4OAc (500 μM). […] The isoTOP ratios for probe labeled peptides were quantified using the in-house software CIMAGE. […]

cathepsin B (CTSB) = target: T2, cathepsin B (CTSB) (Homo sapiens, UniProt P07858); assay: Mapping and competition of FFF probe-modified peptide on cathepsin B (CTSB); assay type: binding; conditions: active-site proximal peptide
T2 construct: endogenous in cells; host or cells: HEK293T
Experimental: Preparation and analysis was adapted from methods previously reported. In brief, for global mapping of fragment probe-modified peptides, separate 10 cm dishes of cells were treated with probes (200-250 μM) in 3.0 mL of DMEM (serum-free) and (if applicable) competitor ligands, proteomes harvested and subjected to click chemistry conditions with either light or heavy isotopically labeled biotin-TEV-azide (10 μL of 5 mM stocks in DMSO, final concentration=100 μM), TCEP, ligand and CuSO4 as detailed above. The samples were allowed to react for 1 h at which point the samples were centrifuged (16,000 g, 5 min, 4° C.). The resulting pellets were sonicated in ice-cold methanol (500 μL) and the resuspended light- and heavy-labeled samples were then combined and centrifuged (16,000 g, 5 min, 4° C.). The pellets were then solubilized in PBS containing 1.2% SDS (1 mL) with sonication and heating (5 min, 95° C.). Samples were transferred to falcon tubes containing DPBS (5 mL), to which a 100 μL of streptavidin-agarose beads slurry was added. […]
as §1

Labeled Peptide (residues) of YWHAE 14-3-3 protein epsilon (YWHAE; peptide AAFDDAIAELDTLSEESYK) | Labeled Peptide (residues) of YWHAE 14-3-3 protein epsilon (YWHAE; peptide EAAENSLVAYK) | probe-modified peptide in YWHAE (YWHAE; lines the primary interaction cleft for MLF1) | probe-modified peptide in CTSB (cathepsin B (CTSB)) | Compound
197-215 | 143-153 | aa 197-215 | – | C#CCCC1(CCC(=O)N2CCCCC2Cc2ccccc2)N=N1 (stereo not shown) [probe 13, 1-(2-Benzylpiperidin-1-yl)-3-(3-(but-3-yn-1-yl)-3H-diazirin-3-yl)propan-1-one]
– | – | – | aa 315-332 | C#CCCC1(CCC(=O)Nc2ccc(C3CCNCC3)cc2)N=N1 [probe 9, 3-(3-(But-3-yn-1-yl)-3H-diazirin-3-yl)-N-(4-(piperidin-4-yl)phenyl)propanamide]
